Laboratory results as given in patent US20250214942A1, “INHIBITORS OF RECEPTOR INTERACTING PROTEIN KINASE I FOR THE TREATMENT OF DISEASE” (Board of Regents, The University of Texas System, priority 2019, published 2025).
Read-outs that look alike come from different tables or passages of the source.

Experiments:
[1] = test system: human monocytic cell line U937; assay: Human U937 cellular necroptosis assay (TNFalpha + z-VAD-FMK, Cell Titer-Glo viability); format: cell-based; details: U937 cells, 25 ng/mL human TNFalpha + 25 μM z-VAD-FMK, read-out: hU937 Avg IC50
Procedure, shortened: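 Cells resuspended in phenol red-free RPMI with 10% FBS, stimulated with 25 ng/mL human TNFalpha plus 25 μM z-VAD-FMK, then given serially diluted compound for 22 h at 37° C, 5% CO2. Viability by Cell Titer-Glo 2.0 luminescence; IC50 from four-parameter logistic fit, averaged across runs.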

RIPK1 = RIPK1 (Homo sapiens (Human), UniProt Q13546); assay: ADP-Glo kinase assay (RIPK1 activity, conversion of ATP to ADP); format: biochemical; details: 5 nM RIPK1, 50 μM ATP, 6 h reaction; read-out: RIPK1 Enzyme Avg IC50
Chain of RIPK1 (Q13546 1-327): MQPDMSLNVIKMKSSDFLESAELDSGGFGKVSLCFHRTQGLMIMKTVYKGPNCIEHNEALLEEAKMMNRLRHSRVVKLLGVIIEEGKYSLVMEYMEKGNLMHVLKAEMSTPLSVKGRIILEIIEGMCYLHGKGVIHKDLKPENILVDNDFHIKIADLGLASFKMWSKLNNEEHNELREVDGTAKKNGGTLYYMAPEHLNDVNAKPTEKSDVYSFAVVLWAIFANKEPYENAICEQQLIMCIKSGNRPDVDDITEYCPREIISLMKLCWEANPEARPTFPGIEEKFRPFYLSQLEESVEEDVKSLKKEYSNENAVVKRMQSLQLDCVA
Method: In order to measure RIPK1 activity the ADP-Glo kinase assay (Promega, Catalog #V7002) was used to measure the conversion of ATP to ADP. This enzymatic assay was performed in a 384-well white, Optiplate (Perkin Elmer, Catalog #6007299) with assay buffer consisting of 50 mM HEPES pH 7.5 (Gibco, Catalog #15630-080), 50 mM NaCl (Teknova, Catalog #S0252), 30 mM MgCl2 (Ambion, Catalog #AM9530G), 1 mM DTT (Santa Cruz Biotechnology, Catalog #sc-29089), 0.05% BSA (Sigma, Catalog #A3059-50G) and 0.02% CHAPS (Sigma, Catalog #C5070-5G). Stock solutions of the test compounds were prepared in 100% DMSO (Sigma, Catalog #D2650) and serially diluted 1:3 using 100% DMSO. Compounds were additionally diluted 1:40 in assay buffer, and 2 μL/well were transferred to the assay plate. 4 μL/well (final concentration of 5 nM) of RIPK1 protein (SignalChem, Catalog #R07-1IG-05) diluted in assay buffer and added to the assay plate followed by a 10 minute preincutation at rt. 4 μL/well of ATP (Promega, Catalog #V7002) (final concentration of 50 μM) diluted in assay buffer were then added to the assay plate followed by a 6 h reaction time. Final concentrations of RIPK1 and ATP refer to a 10 μL volume. Luminescence was measured using a BioTek Synergy™ NEO plate reader. IC50 values were calculated using a four-parameter logistic curve fit using Genedata Screener software.

IC50 (RIPK1) [nM]	Molecule	IC50 ([1]; 22 h) [nM]	IC50 ([1]; Homo sapiens, U-937, 22 h) [nM]
213	Cn1cc(-c2cc(OCC34CC(C(=O)N5CC(F)CC5c5cccc(F)c5)(C3)C4)ncn2)cn1 (single isomer, unassigned) [Example 29, (4-Fluoro-2-(3-fluorophenyl)pyrrolidin-1-yl)(3-(((6-(1-methyl-1H-pyrazol-4-yl)pyrimidin-4-yl)oxy)methyl)bicyclo[1.1.1]pentan-1-yl)methanone]	–	647
124	Cn1cc(-c2cc(OCC34CC(C(=O)N5CC(F)CC5c5cccc(F)c5)(C3)C4)ncn2)cn1 (single isomer, unassigned) [Example 30, (4-Fluoro-2-(3-fluorophenyl)pyrrolidin-1-yl)(3-(((6-(1-methyl-1H-pyrazol-4-yl)pyrimidin-4-yl)oxy)methyl)bicyclo[1.1.1]pentan-1-yl)methanone]	708	–
51	O=C(N1N=CCC1c1cc(F)cc(F)c1)C12CC(Cn3cc4cc(F)ccc4n3)(C1)C2 (stereo not shown) [Example 3, (5-(3,5-Difluorophenyl)-4,5-dihydro-1H-pyrazol-1-yl)(3-((5-fluoro-2H-indazol-2-yl)methyl)bicyclo[1.1.1]pentan-1-yl)methanone]	–	112
19	O=C(N1N=CCC1c1cc(F)cc(F)c1)C12CC(Cn3ncc4cc(F)ccc43)(C1)C2 (stereo not shown) [Example 4, (5-(3,5-Difluorophenyl)-4,5-dihydro-1H-pyrazol-1-yl)(3-((5-fluoro-1H-indazol-1-yl)methyl)bicyclo[1.1.1]pentan-1-yl)methanone]	–	9
17	O=C(N1N=CCC1c1cc(F)cc(F)c1)C12CC(CF)(C1)C2 (stereo not shown) [Example 5, (5-(3,5-Difluorophenyl)-4,5-dihydro-1H-pyrazol-1-yl)(3-(fluoromethyl)-bicyclo[1.1.1]pentan-1-yl)methanone]	–	20
23	O=C(N1N=CCC1c1cc(F)cc(F)c1)C12CC(COc3cc(Br)ncn3)(C1)C2 (stereo not shown) [Example 6, (3-(((6-Bromopyrimidin-4-yl)oxy)methyl)bicyclo[1.1.1]pentan-1-yl)(5-(3,5-difluorophenyl)-4,5-dihydro-1H-pyrazol-1-yl)methanone]	–	20
21	O=C(N1N=CCC1c1cc(F)cc(F)c1)C12CC(COc3cc(Cl)ncn3)(C1)C2 (stereo not shown) [Example 7, (3-(((6-Chloropyrimidin-4-yl)oxy)methyl)bicyclo[1.1.1]pentan-1-yl)(5-(3,5-difluorophenyl)-4,5-dihydro-1H-pyrazol-1-yl)methanone]	–	18
28	NC(=O)c1cc(OCC23CC(C(=O)N4N=CCC4c4cc(F)cc(F)c4)(C2)C3)ncn1 (stereo not shown) [Example 8, 6-((3-(5-(3,5-Difluorophenyl)-4,5-dihydro-1H-pyrazole-1-carbonyl)bicyclo[1.1.1]pentan-1-yl)methoxy)pyrimidine-4-carboxamide]	–	51
16	N#Cc1cc(OCC23CC(C(=O)N4N=CCC4c4cc(F)cc(F)c4)(C2)C3)ncn1 (stereo not shown) [Example 9, 6-((3-(5-(3,5-Difluorophenyl)-4,5-dihydro-1H-pyrazole-1-carbonyl)bicyclo[1.1.1]pentan-1-yl)methoxy)pyrimidine-4-carbonitrile]	–	62
20	O=C(N1N=CCC1c1cc(F)cc(F)c1)C12CC(CCl)(C1)C2 (stereo not shown) [Example 11, (3-(Chloromethyl)bicyclo[1.1.1]pentan-1-yl)(5-(3,5-difluorophenyl)-4,5-dihydro-1H-pyrazol-1-yl)methanone]	–	18
243	N#Cc1cc(NCC23CC(C(=O)N4N=CCC4c4cc(F)cc(F)c4)(C2)C3)ncn1 (stereo not shown) [Example 12, 6-(((3-(5-(3,5-Difluorophenyl)-4,5-dihydro-1H-pyrazole-1-carbonyl)bicyclo[1.1.1]pentan-1-yl)methyl)amino)pyrimidine-4-carbonitrile]	–	887
12	O=C(N1N=CCC1c1cncc(F)c1)C12CC(Cn3ncc4c(F)cccc43)(C1)C2 (stereo not shown) [Example 14, (3-((4-Fluoro-1H-indazol-1-yl)methyl)bicyclo[1.1.1]pentan-1-yl)(5-(5-fluoropyridin-3-yl)-4,5-dihydro-1H-pyrazol-1-yl)methanone]	–	24
70	N#CCC12CC(C(=O)N3N=CCC3c3cc(F)cc(F)c3)(C1)C2 (stereo not shown) [Example 18, 2-(3-(5-(3,5-Difluorophenyl)-4,5-dihydro-1H-pyrazole-1-carbonyl)-bicyclo[1.1.1]pentan-1-yl)acetonitrile]	–	284
70	O=C(N1N=CCC1c1cc(F)cc(F)c1)C12CC(Cn3cc4c(F)cccc4n3)(C1)C2 (stereo not shown) [Example 21, (5-(3,5-Difluorophenyl)-4,5-dihydro-1H-pyrazol-1-yl)(3-((4-fluoro-2H-indazol-2-yl)methyl)bicyclo[1.1.1]pentan-1-yl)methanone]	–	114

Molecule	IC50 (RIPK1) [nM]	IC50 ([1]; 22 h) [nM]	IC50 ([1]; Homo sapiens, U-937, 22 h) [nM]
1-((3-(5-(3,5-difluorophenyl)-4,5-dihydro-1H-pyrazole-1-carbonyl)bicyclo[1.1.1]-pentan-1-yl)methyl)-1H-benzo[d]imidazole-6-carbonitrile and 1-((3-(5-(3,5-difluorophenyl)-4,5-dihydro-1H-pyrazole-1-carbonyl)bicyclo[1.1.1]-pentan-1-yl)methyl)-1H-benzo[d]imidazole-5-carbonitrile [Example 186]	113	682	–
(3-((3-cyclopropyl-1H-pyrazol-1-yl)methyl)-bicyclo[1.1.1]pentan-1-yl)(5-(3,5-difluorophenyl)-4,5-dihydro-1H-pyrazol-1-yl)methanone and (3-((5-cyclopropyl-1H-pyrazol-1-yl)methyl)-bicyclo[1.1.1]pentan-1-yl)(5-(3,5-difluorophenyl)-4,5-dihydro-1H-pyrazol-1-yl)methanone [Example 191]	74	–	–
(5-(3,5-difluorophenyl)-4,5-dihydro-1H-pyrazol-1-yl)(3-((3-methyl-1H-pyrazol-1-yl)methyl)bicyclo[1.1.1]-pentan-1-yl)methanone and (5-(3,5-difluorophenyl)-4,5-dihydro-1H-pyrazol-1-yl)(3-((5-methyl-1H-pyrazol-1-yl)methyl)bicyclo[1.1.1]-pentan-1-yl)methanone [Example 190]	30	–	–
(5-(3,5-difluorophenyl)-4,5-dihydro-1H-pyrazol-1-yl)(3-((6-fluoro-2-methyl-1H-benzo[d]imidazol-1-yl)-methyl)bicyclo[1.1.1]pentan-1-yl)methanone and (5-(3,5-difluorophenyl)-4,5-dihydro-1H-pyrazol-1-yl)(3-((5-fluoro-2-methyl-1H-benzo[d]imidazol-1-yl)-methyl)bicyclo[1.1.1]pentan-1-yl)methanone [Example 188]	454	–	–
(5-(3,5-difluorophenyl)-4,5-dihydro-1H-pyrazol-1-yl)(3-((6-methoxy-1H-benzo[d]-imidazol-1-yl)methyl)-bicyclo[1.1.1]pentan-1-yl)-methanone and (5-(3,5-difluorophenyl)-4,5-dihydro-1H-pyrazol-1-yl)(3-((5-methoxy-1H-benzo[d]-imidazol-1-yl)methyl)-bicyclo[1.1.1]pentan-1-yl)-methanone [Example 187]	447	–	–
